Test: Differential Scanning Calorimetry (DSC) comparison of crystal forms
Type: physicochemical
Settings: comparison of DSC curves (FIG. 6); heating rate 10° C./min, 20-200° C.; melting 34° C. higher than Form I and 16° C. higher than Form II
Procedure: Differential Scanning Calorimetry (DSC) A. Equipment Instrument: TA Universal Analysis Q1000 Software: Universal Analysis 2000 B. Experimental Parameters Heating rate: 10° C./min Temperature range: 20-200° C. Sample size: 2.00-5.00 mg Purge gas: Nitrogen, 40 ml/min Crucible: Hermetic pinholed

## CN(C)CC(c1ccc(O)cc1)C1(O)CCCCC1.O=C(O)/C=C/C(=O)O (stereo not shown) [O-Desvenlafaxine fumarate Form N, O-desmethylvenlafaxine fumarate]
  thermal stability as compared to forms I and II: enhanced thermal stability

Source: patent publication US8569371B2, “Crystal forms of O-desmethylvenlafaxine fumarate” (Pliva Hrvatska D.O.O., priority 2010, dated 2013)
